Experimental findings from paper PMC2947195 (Biochemical Journal, 2010) are described below.

Experiment in all cases: Competitive inhibition of [3H]MTX uptake
Common to all, as to type: cell-based

The target of one experiment is T1, S313T hRFC (Homo sapiens, UniProt P41440, S313T).
T1 sequence (P41440 1-591 S313T): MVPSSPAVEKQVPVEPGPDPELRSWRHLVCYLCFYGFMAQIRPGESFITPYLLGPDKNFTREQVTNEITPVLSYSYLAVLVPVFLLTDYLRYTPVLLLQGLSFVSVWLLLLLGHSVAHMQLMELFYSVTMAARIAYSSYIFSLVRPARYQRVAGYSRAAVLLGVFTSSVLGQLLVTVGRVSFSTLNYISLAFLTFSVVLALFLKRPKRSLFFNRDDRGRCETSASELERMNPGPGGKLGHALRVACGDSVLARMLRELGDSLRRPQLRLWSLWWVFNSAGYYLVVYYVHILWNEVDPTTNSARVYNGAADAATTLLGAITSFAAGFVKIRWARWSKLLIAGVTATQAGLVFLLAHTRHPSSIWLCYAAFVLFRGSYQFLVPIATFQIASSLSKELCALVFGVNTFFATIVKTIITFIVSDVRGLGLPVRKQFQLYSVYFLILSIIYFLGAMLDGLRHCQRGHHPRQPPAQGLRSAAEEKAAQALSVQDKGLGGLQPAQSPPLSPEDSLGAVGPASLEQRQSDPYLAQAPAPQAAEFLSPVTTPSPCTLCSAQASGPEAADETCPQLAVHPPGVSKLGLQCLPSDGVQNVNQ
The following applies: for decrease of Ki compared with wt hRFC: S313T hRFC versus wt hRFC.

For a further experiment, the target named is T2, wt hRFC (Homo sapiens, UniProt P41440).
T2 sequence (P41440 1-591): T1 sequence (P41440 1-591 S313T) with T313S

In the next experiment the target is T3, S313A hRFC (Homo sapiens, UniProt P41440, S313A).
T3 sequence (P41440 1-591 S313A): T1 sequence (P41440 1-591 S313T) with T313A

Where a chain is given by its changes, count along the chain named. Like-named read-outs stand apart in the source and are kept apart here.

Turning to `Cc1nc2ccc3ccc(CNc4ccc5c(c4)CN([C@@H](CCC(=O)O)C(=O)O)C5=O)cc3c2c(=O)[nH]1` [GW1843U89, (S)-2-[5-({[1,2-dihydro-3-methyl-1-oxo-benzo(f)quinazolin-9-yl]methyl}amino)1-oxo-2-isoindolinyl] glutaric acid], the values for the Ki on S313T hRFC, on wt hRFC and on S313A hRFC were 750 ± 60 nM, 2.1 ± 0.01 µM and 2.61 ± 0.5 µM, respectively. Besides, on S313T hRFC, the “decrease of Ki compared with wt hRFC” value was 2–3 fold.
On to `Nc1nc(N)c2nc(CNc3ccc(C(=O)N[C@@H](CCCNC(=O)c4ccccc4C(=O)O)C(=O)O)cc3)cnc2n1` [PT523, N^α-(4-amino-4-deoxypteroyl)-N^δ-hemiphthaloyl-L-ornithine], for which the Ki on S313T hRFC (S313T hRFC, inhibition of [3H]MTX (1 μM) uptake, Dixon plots, mean±S.E.M., n=3) is 2860 ± 850 nM; at wt hRFC (wt hRFC, inhibition of [3H]MTX (1 μM) uptake, Dixon plots, mean±S.E.M., n=3), 4.56 ± 0.97 µM; at S313A hRFC (S313A hRFC, inhibition of [3H]MTX (1 μM) uptake, Dixon plots, mean±S.E.M., n=3), 3.13 ± 0.17 µM.
For `Nc1nc(=O)c2nc(CNc3ccc(C(=O)N[C@@H](CCC(=O)O)C(=O)O)cc3)cnc2[nH]1` [Folic acid, folic acid], the Ki turned out to be 237000 ± 58400 nM on S313T hRFC, 194 ± 5.45 µM at wt hRFC and 435 ± 82.7 µM at S313A hRFC. The “increase of Ki compared with wt carrier” value at S313A hRFC (S313A hRFC versus wt hRFC) is on record as ~ 2 fold.
For the molecule `Cc1nc2ccc(CN(C)c3ccc(C(=O)N[C@@H](CCC(=O)O)C(=O)O)s3)cc2c(=O)[nH]1` [Raltitrexed, N-{5-[N-(3,4-dihydro-2methyl-4-oxyquinazolin-6-ylmethyl)-N-methyl-amino]-2-thienoyl}-L-glutamic acid], the “decrease of Ki compared with wt hRFC” value at S313T hRFC was 2–3 fold.
In the case of `Nc1nc2c(c(=O)[nH]1)N(C=O)C(CNc1ccc(C(=O)N[C@@H](CCC(=O)O)C(=O)O)cc1)CN2` (stereo partly drawn) [Leucovorin, (6R,S)-5-formyl tetrahydrofolate], the Ki at S313T hRFC was 7740 ± 660 nM; at wt hRFC it was 18.7 ± 1.54 µM; at S313A hRFC, 12.3 ± 0.88 µM. The “decrease of Ki compared with wt hRFC” value on S313T hRFC and on S313A hRFC (S313A hRFC versus wt hRFC) was 2–3 fold throughout.
Take `C#CCN(Cc1cc2c(=O)[nH]c(C)nc2cc1C)c1ccc(C(=O)N[C@@H](CCc2nnn[nH]2)C(=O)O)c(F)c1` [ZD9331, (2S)-2-{O-fluoro-p-[N-(2,7dimethyl-4-oxo-3,4-dihydro-quinazolin-6-ylmethyl)-N-(prop-2ynyl)amino]benzamido}-4-(tetrazol-5-yl)-butyric acid]: the Ki at S313T hRFC worked out at 2310 ± 180 nM; on wt hRFC it was 4.42 ± 0.93 µM; on S313A hRFC, 2.96 ± 0.52 µM.
As to `Nc1nc(N)c2nc(CNc3ccc(C(=O)N[C@@H](CCC(=O)O)C(=O)O)cc3)cnc2n1` [Aminopterin, aminopterin], the Ki on S313T hRFC worked out at 2750 ± 150 nM; on wt hRFC, 7.03 ± 0.02 µM; at S313A hRFC it was 3.43 ± 0.58 µM. Moreover, the “decrease of Ki compared with wt hRFC” value at S313T hRFC and at S313A hRFC (S313A hRFC versus wt hRFC) was 2–3 fold in each case.
Turning to `CCC(Cc1cnc2nc(N)nc(N)c2n1)c1ccc(C(=O)N[C@@H](CCC(=O)O)C(=O)O)cc1` (stereo partly drawn) [Edatrexate, 10-ethyl-10-deazaaminopterin], the inhibitory constant (Ki) on S313T hRFC was found to be 2230 ± 380 nM; on wt hRFC, 5.48 ± 1.1 µM; at S313A hRFC it was 4.25 ± 0.53 µM.
`Nc1nc2[nH]cc(CCc3ccc(C(=O)N[C@@H](CCC(=O)O)C(=O)O)cc3)c2c(=O)[nH]1` [Pemetrexed, N-{4-[2(2-amino-3,4-dihydro-4-oxo-7H-pyrrolo[2,3-d]pyrimidin-5-yl)ethyl]benzoyl}-L-glutamic acid]: the “decrease of Ki compared with wt hRFC” value on S313T hRFC and at S313A hRFC (S313A hRFC versus wt hRFC) was 2–3 fold throughout.

The term Ki denotes the equilibrium dissociation constant of an inhibitor or competing ligand from its target.
